Active and inactive are the calls of the source. The rule behind the calls is not given here.
The compounds below were run against Serine/threonine-protein kinase mTOR (Homo sapiens) (UniProt P42345) (assay: mTOR FRB domain ligand binding – biophysical, NMR (AID 1648)). Settings: NMR binding to FRB domain, chemical shift.
Sequence of Serine/threonine-protein kinase mTOR (Homo sapiens) (P42345 2015-2114): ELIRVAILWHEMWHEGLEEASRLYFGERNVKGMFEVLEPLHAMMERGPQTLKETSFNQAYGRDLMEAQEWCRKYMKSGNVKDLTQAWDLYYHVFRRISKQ

Row | Structure (SMILES) | Kd
1 | O=C(Nc1ccon1)c1ccc(Br)o1 | > 4 mM (inactive)
2 | Cc1nn(C)c2sc(C(=O)O)cc12 | > 4 mM (inactive)
3 | COc1ccc2c(c1)OC/C(=C/c1ccc(OC)c(OC)c1)C2=O | > 4 mM (inactive)
4 | COC(=O)CCSCC(=O)Nc1nnc(C)s1 | > 4 mM (inactive)
5 | COC(=O)C[C@H]1C(C)(C)C(=O)[C@@H]2CC3C4=CC(=O)O[C@@H](c5ccoc5)[C@]4(C)CCC3C1(C)C2=O (stereo partly specified) | > 4 mM (inactive)
6 | Cc1nn2c(-c3ccncc3)nnc2c2ccccc12 | > 4 mM (inactive)
7 | Nc1ncnc2c1ncn2C1C[C@H](O)[C@@H](CO)O1 (stereo partly specified) | > 4 mM (inactive)
8 | NC(=NCCC[C@H](N)C(=O)O)NC(CCC(=O)O)C(=O)O (stereo partly specified) | > 4 mM (inactive)
9 | O=C(O)c1cccc2c1OCCO2 | > 4 mM (inactive)
10 | O=C(O)c1cccc2c1OCC2 | > 4 mM (inactive)
11 | Nc1[nH]c(=S)[nH]c(=O)c1-c1ccccc1 | > 4 mM (inactive)
12 | CNC(=O)C(=O)NCc1ccc(C)cc1 | > 4 mM (inactive)
13 | CC(=O)N1CCc2cc(NC(=O)c3ccc(C)cc3)ccc21 | > 4 mM (inactive)
14 | Cc1sc2nc(SCC(=O)N(C)C)[nH]c(=O)c2c1C | > 4 mM (inactive)
15 | C[C@H]1OC(O[C@H]2[C@@H](O)CC(O[C@H]3[C@@H](O)C[C@H](O[C@H]4CC[C@]5(C)C6CC[C@]7(C)[C@@H](C8=CC(=O)OC8)[C@@H](O)C[C@]7(O)[C@@H]6CC[C@@H]5C4)O[C@@H]3C)O[C@@H]2C)C[C@H](O)C1O (stereo partly specified) | > 4 mM (inactive)
16 | Cc1nn2c3ccccc3nc2n(Cc2ccccc2)c1=O | > 4 mM (inactive)
17 | FC(F)(F)c1nnc2ccc(N3CCOCC3)nn12 | > 4 mM (inactive)
18 | CCCCCCCCCCCCCCCCCCOCC(O)CO (stereo unspecified) | > 4 mM (inactive)
19 | Cc1nccc2c1[nH]c1ccccc12 | > 4 mM (inactive)
20 | CCn1nnnc1Oc1ccc(Cl)cc1 | > 4 mM (inactive)
21 | CC(=O)Nc1ccc(NC(=O)c2ccnn2C)cc1 | > 4 mM (inactive)
22 | Cc1ccc(SCc2cc(=O)n3[nH]c(C)nc3n2)cc1 | > 4 mM (inactive)
23 | O=C(O)C1CN(Cc2ccccc2)CCO1 (stereo unspecified) | > 4 mM (inactive)

Row | Structure (SMILES) | Kd
24 | Nc1ccc2sccc2c1 | > 4 mM (inactive)
25 | O=C(O)c1ccc(-c2cccs2)cc1 | > 4 mM (inactive)
26 | CNS(=O)(=O)c1ccc2[nH]c(=O)[nH]c2c1 | > 4 mM (inactive)
27 | CC(C)=CCOc1cc2oc(=O)ccc2cc1O | > 4 mM (inactive)
28 | CC(=O)Nc1cccc(NC(=O)c2cccnc2)c1 | > 4 mM (inactive)
29 | Cn1c(CSc2nc3ccccc3s2)n[nH]c1=S | > 4 mM (inactive)
30 | OCc1ccccc1O[C@@H]1O[C@H](CO)[C@@H](O)[C@H](O)[C@H]1O | > 4 mM (inactive)
31 | CSc1nc(C)c(Oc2ccccc2)c(=O)n1C | > 4 mM (inactive)
32 | O=S(=O)(Nc1cccc2cn[nH]c12)c1ccc(F)cc1 | > 4 mM (inactive)
33 | CN(C)c1ccc(C2CC(=O)CC(=O)C2)cc1 | > 4 mM (inactive)
34 | Cc1ccc2cc(C(=O)O)ccc2n1 | > 4 mM (inactive)
35 | CC(NC(=O)c1ccco1)c1ccc2c(c1)OCCO2 (stereo unspecified) | > 4 mM (inactive)
36 | NC(=O)c1ccc(N2CCCCC2)c(N)c1 | > 4 mM (inactive)
37 | Nc1nnc(SCc2cccnc2)s1 | > 4 mM (inactive)
38 | CC(=O)c1ccc(NS(=O)(=O)c2cccc(C)c2)cc1 | > 4 mM (inactive)
39 | Cc1cc(C(=O)NCc2cccs2)c(C)o1 | > 4 mM (inactive)
40 | CC(=O)Nc1ccc2c(c1)CCC2=O | > 4 mM (inactive)
41 | Nc1ccc(C2SCCS2)cc1 | > 4 mM (inactive)
42 | Nc1nc(CSc2ncn(-c3ccccc3)n2)cs1 | > 4 mM (inactive)
43 | NC1CSCC1O (stereo unspecified) | > 4 mM (inactive)
44 | Cc1nn2c(=O)c(NC(=O)c3ccccc3)cnc2s1 | > 4 mM (inactive)
45 | O=C(Nc1ccccc1)c1cnc2n(c1=O)CCS2 | > 4 mM (inactive)
46 | COc1ccc([C@@H](C)C(=O)c2ccc(O)cc2O)cc1 | > 4 mM (inactive)
